Results from patent US20260176289A1, “SMALL MOLECULE INHIBITORS OF KRAS PROTEINS” (Merck Sharp & Dohme LLC, priority 2022, published 2026).
pIC50: −log10 of the molar value. Read-outs that look alike come from different tables or passages of the source.

Columns and labels:
[1] = molecular target: KRAS-G13D (Homo sapiens, UniProt P01116, G13D); test: SOS-catalyzed nucleotide exchange assay (Procedure A, TR-FRET), KRAS-G13D; type: biochemical; details: nucleotide exchange, Procedure A; read-out: KRAS G13D GNE IC50
[2] = tested on: MKN-1 cells; test: Cellular phospho-ERK assay, MKN-1 cells (amplified wild-type KRAS); type: cell-based; details: Homo sapiens, read-out: MKN1 pERK IC50
Procedure, shortened: (§1)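 Inhibition of ERK phosphorylation was determined after treating attached cells with compound for 2 h; top concentration 30 μM, serial 1:3 dilution. Each well's p-ERK:total ERK ratio, read by SureFire Ultra, was fitted with a four-parameter model for IC50.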

[3] = tested on: SW620 cells; test: Cellular phospho-ERK assay, SW620 cells (homozygous KRAS-G12V); type: cell-based; details: Homo sapiens, read-out: SW620 pERK IC50
Procedure, shortened: as §1

[4] = tested on: PANC08.13 cells; test: Cellular phospho-ERK assay, PANC08.13 cells (homozygous KRAS-G12D); type: cell-based; details: Homo sapiens, read-out: PANC-08.13 pERK IC50
Procedure, shortened: as §1

[5] = molecular target: KRAS-G12D (Homo sapiens, UniProt P01116, G12D); test: SOS-catalyzed nucleotide exchange assay (Procedure A, TR-FRET), KRAS-G12D; type: biochemical; details: nucleotide exchange, read-out: KRAS G12D GNE IC50
Procedure, shortened: (§2)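 Signal ratio (520/495 nm, excitation 340 nm) reports Bodipy-GDP retention on biotinylated RAS after SOS-catalyzed exchange with 3 mM GTP. SOS was 40 nM, except 160 nM for G12V. Room-temperature exchange lasted 60 min (90 min for G12V), following a 60 min compound preincubation.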

[6] = molecular target: KRAS-G12V (Homo sapiens, UniProt P01116, G12V); test: SOS-catalyzed nucleotide exchange assay (Procedure A, TR-FRET), KRAS-G12V; type: biochemical; details: nucleotide exchange, read-out: KRAS G12V GNE IC50
Procedure, shortened: as §2

[7] = tested on: AsPC-1 cells; test: Cellular phospho-ERK assay, AsPC-1 cells (homozygous KRAS-G12D); type: cell-based; details: Homo sapiens, ASPC1, 2 h, read-out: AsPC1 pERK IC50
Procedure, shortened: as §1

[8] = molecular target: KRAS-WT (Homo sapiens, UniProt P01116); test: SOS-catalyzed nucleotide exchange assay (Procedure A, TR-FRET), KRAS-WT; type: biochemical; details: nucleotide exchange, read-out: KRAS WT GNE IC50
Procedure, shortened: as §2

[9] = molecular target: KRAS-G12C (C51S/C80L/C118S) (Homo sapiens, UniProt P01116, C118S/C51S/C80L/G12C); test: SOS-catalyzed nucleotide exchange assay (Procedure A, TR-FRET), KRAS-G12C; type: biochemical; details: nucleotide exchange, Procedure A; read-out: KRAS G12C GNE IC50
Procedure, shortened: as §2

[10] = amplified wild-type KRAS, 2 hours

Chain of KRAS-G12C (C51S/C80L/C118S) (P01116 with tags, fused parts or gaps isoform P01116-2 G12C/C51S/C80L/C118S): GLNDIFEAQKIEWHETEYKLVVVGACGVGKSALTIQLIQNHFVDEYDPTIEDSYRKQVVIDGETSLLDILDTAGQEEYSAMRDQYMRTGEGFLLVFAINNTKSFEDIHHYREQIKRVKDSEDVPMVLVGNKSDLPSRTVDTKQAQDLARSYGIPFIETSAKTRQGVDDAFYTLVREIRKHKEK
Chain of KRAS-G13D (P01116 with tags, fused parts or gaps isoform P01116-2 G13D): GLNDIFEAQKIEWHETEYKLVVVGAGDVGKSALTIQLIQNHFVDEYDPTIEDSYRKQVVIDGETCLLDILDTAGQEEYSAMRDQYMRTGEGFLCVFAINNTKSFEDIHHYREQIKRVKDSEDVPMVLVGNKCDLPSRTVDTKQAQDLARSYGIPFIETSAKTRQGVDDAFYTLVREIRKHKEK
Chain of KRAS-WT (P01116 with tags, fused parts or gaps isoform P01116-2): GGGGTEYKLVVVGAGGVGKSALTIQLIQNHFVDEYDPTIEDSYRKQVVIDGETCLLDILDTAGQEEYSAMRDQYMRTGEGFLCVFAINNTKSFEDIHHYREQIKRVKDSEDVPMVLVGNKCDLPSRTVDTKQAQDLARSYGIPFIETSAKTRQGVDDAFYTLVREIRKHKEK
Chain of KRAS-G12D (P01116 with tags, fused parts or gaps isoform P01116-2 G12D): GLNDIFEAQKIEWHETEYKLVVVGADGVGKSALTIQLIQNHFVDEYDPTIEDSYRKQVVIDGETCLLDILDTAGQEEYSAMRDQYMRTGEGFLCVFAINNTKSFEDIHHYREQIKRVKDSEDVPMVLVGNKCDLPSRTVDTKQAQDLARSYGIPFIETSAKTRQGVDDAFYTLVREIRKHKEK
Chain of KRAS-G12V (P01116 with tags, fused parts or gaps isoform P01116-2 G12V): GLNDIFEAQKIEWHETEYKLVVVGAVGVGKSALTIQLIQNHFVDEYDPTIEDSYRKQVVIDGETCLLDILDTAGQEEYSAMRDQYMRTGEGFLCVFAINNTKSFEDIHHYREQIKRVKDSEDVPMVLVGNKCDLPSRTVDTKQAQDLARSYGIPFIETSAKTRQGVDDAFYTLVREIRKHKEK

SMILES	pIC50 [1]	pIC50 [2, 10]	pIC50 ([3]; SW-620, KRAS-G12V, 2 hours)	pIC50 ([4]; PANC-08-13, KRAS-G12D, 2 hours)	pIC50 [5]	pIC50 [6]	pIC50 ([7]; KRAS-G12D, 2 hours)	pIC50 [8]	pIC50 [9]	pIC50 ([2]; 2 hours compound incubation)	pIC50 ([3]; SW-620, 2 hours compound incubation)	pIC50 ([4]; PANC-08-13, 2 hours compound incubation)	pIC50 ([7]; 2 hours compound incubation)
Cc1cc2[nH]ncc2c(-c2nccc3c2sc2nc(OC[C@@]45CCCN4C[C@H](F)C5)nc(N4CCOC[C@@](C)(O)C4)c23)c1OC(F)(F)Cl [Ex-39, (6S)-4-(8-(5-(chlorodifluoromethoxy)-6-methy1-1H-indazol-4-yl)-2-(((2R,7aS)-2-fluorotetrahydro-1H-pyrrolizin-7a(5H)-yl)methoxy)pyri-do[4′,3′:4,5]thi-eno[2,3-d]pyrimidin-4-yl)-6-methyl-1,4-oxazepan-6-ol]	7.69	7.35	7.13	7.45	8.03	7.51	6.93	7.52	8.03				
Cn1c2nc(OC[C@@]34CCCN3C[C@H](F)C4)nc(N3CCOC[C@@](C)(O)C3)c2c2ccnc(-c3ccc(F)c4sc(N)c(C#N)c34)c21 [Ex-16, 2-amino-7-fluoro-4-(2-(((2R,7aS)-2-fluorotetrahydro-1H-pyrrolizin-7a(5H)-yl)methoxy)-4-((S)-6-hydroxy-6-methyl-1,4-oxazepan-4-yl)-9-methyl-9H-pyrido[4′,3′:4,5]pyrrolo[2,3-d]pyrimidin-8-yl)benzo[b]thiophene-3-carbonitrile]	6.50	5.75	5.07	5.26	6.02	6.25		6.12	5.88				
C=C(C)c1c(C)cc2[nH]ncc2c1-c1nccc2c1sc1nc(OC[C@@]34CCCN3C[C@H](F)C4)nc(N3CCOC[C@@](C)(O)C3)c12 [Ex-136, (6S)-4-(2-(((2R, 7aS)-2-fluorotetra-hydro-1H-pyrrol-izin-7a(5H)-yl)meth-oxy)-8-(6-methyl-5-(prop-1-en-2-yl)-1H-indazol-4-yl)pyr-ido[4′,3′:4,5]thieno [2,3-d]pyrimidin-4-yl)-6-methyl-1,4-oxazepan-6-ol]	7.61				7.67	7.39		7.22	7.41	6.93	6.60	7.23	6.88
Cc1cc2[nH]ncc2c(-c2nccc3c2sc2nc(OC[C@@]45CCCN4C[C@H](F)C5)nc(N4CCC[C@@](C)(O)C4)c23)c1C(F)(F)F [Ex-128, (3R)-1-(2-(((2R, 7aS)-2-fluorotetra-hydro-1H-pyrrol-izin-7a(5H)-yl)meth-oxy)-8-(6-methyl-5-(trifluoromethyl)-1H-indazol-4-yl)-pyrido[4′,3′:4,5]thieno[2,3-d]pyr-imidin-4-yl)-3-methylpiperidin-3-ol]	6.69	6.67		6.62	7.01	6.84	6.18	6.61	6.99				
C#Cc1c(C)cc2[nH]ncc2c1-c1nccc2c3c(N4CCOC[C@@](C)(O)C4)nc(OC[C@@]45CCCN4C[C@H](F)C5)nc3n(C)c12 (single isomer, unassigned) [Ex-7]	7.64	6.85	6.63	7.00	7.65	7.52	6.61	7.37	6.89				
Cc1cc2[nH]ncc2c(-c2nccc3c4c(N5CCC[C@@](C)(O)C5)nc(OC[C@]5(CN(C)C)CC5(F)F)nc4n(C)c23)c1C(F)(F)F [Ex-6, (3R)-1-(2-(((R)-1-((dimethylamino)methyl)-2,2-difluorocyclopropyl)methoxy)-9-methyl-8-(6-methyl-5-(trifluoromethyl)-1H-indazol-4-yl)-9H-pyrido[4′,3′:4,5]pyrrolo[2,3-d]pyrimidin-4-yl)-3-methylpiperidin-3-ol]	7.31	6.52	6.54	6.73	7.01	6.89	6.34	6.66	6.98				
Cn1c2nc(OC[C@@]34CCCN3C[C@H](F)C4)nc(N3CCOC[C@@](C)(O)C3)c2c2ccnc(-c3c(C(F)F)c(Cl)cc4[nH]ncc34)c21 (single isomer, unassigned) [Ex-11]	6.98			6.62	7.07	6.90	5.92	6.80	7.39				
C#Cc1c(C)cc2[nH]ncc2c1-c1nccc2c1sc1nc(OC[C@@]34CCCN3C[C@H](F)C4)nc(N3CCOC[C@@](C)(O)C3)c12 [Ex-33, (6S)-4-(8-(5-ethynyl-6-methyl-1H-indazol-4-yl)-2-(((2R,7aS)-2-fluorotetrahydro-1H-pyrrolizin-7a(5H)-yl)methoxy)pyrido[4′,3′:4,5]thieno[2,3-d]pyrimidin-4-yl)-6-methyl-1,4-oxazepan-6-ol]	7.71	7.28	6.90	7.22	7.87	7.54		7.45	7.45				
COc1cc2c3c(N4CCOC[C@@](C)(O)C4)nc(OC[C@@]45CCCN4C[C@H](F)C5)nc3n(C)c2c(-c2c(C(F)(F)F)c(C)cc3[nH]ncc23)n1 [Ex-26, (6S)-4-(2-(((2R,7aS)-2-fluorotetrahydro-1H-pyrrolizin-7a(5H)-yl)methoxy)-6-methoxy-9-methyl-8-(6-methyl-5-(trifluoromethyl)-1H-indazol-4-yl)-9H-pyrido[4′,3′:4,5]pyrrolo[2,3-d]pyrimidin-4-yl)-6-methyl-1,4-oxazepan-6-ol]	7.03	6.49	6.15	6.77	7.02	7.02		6.72	6.68				
Cc1cc2[nH]ncc2c(-c2nccc3c2sc2nc(OC[C@@]45CCCN4C[C@H](F)C5)nc(N4CCOC[C@@](C)(O)C4)c23)c1Cl [Ex-32, (6S)-4-(8-(5-chloro-6-methyl-1H-indazol-4-yl)-2-(((2R,7aS)-2-fluorotetrahydro-1H-pyrrolizin-7a(5H)-yl)methoxy)pyrido[4′,3′:4,5]thieno[2,3-d]pyrimidin-4-yl)-6-methyl-1,4-oxazepan-6-ol]	6.96	6.56	6.65	6.76	7.00	6.67		6.69	7.04				
C#Cc1cccc2cccc(-c3nccc4c3sc3nc(OC[C@@]56CCCN5C[C@H](F)C6)nc(N5CCOC[C@@](C)(O)C5)c34)c12 [Ex-127, (S)-4-(8-(8-ethynyl-naphthalen-1-yl)-2-(((2R,7aS)-2-fluoro-tetrahydro-1H-pyr-rolizin-7a(5H)-yl)-methoxy)pyrido[4′, 3′:4,5]thieno[2,3-d]pyrimidin-4-yl)-6-methyl-1,4-oxaze-pan-6-ol]	6.54	6.29	6.32	6.45	6.99	6.92		6.63	7.04				
Cc1cc2[nH]ncc2c(-c2nccc3c4c(N5CCC[C@@](C)(O)C5)nc(OC[C@@]56CCCN5C[C@H](F)C6)nc4n(C)c23)c1C(F)(F)F (single isomer, unassigned) [Ex-5]	7.03	6.90		6.72	7.21	7.09	6.16	7.00	7.01				
Cc1cc2[nH]ncc2c(-c2nccc3c2sc2nc(OC[C@@]45CCCN4C[C@H](F)C5)nc(N4CCOC[C@@](C)(O)C4)c23)c1C#N [Ex-34, 4-(2-(((2R,7aS)-2-fluorotetrahydro-1H-pyrrolizin-7a(5H)-yl)methoxy)-4-((S)-6-hydroxy-6-methyl-1,4-oxazepan-4-yl)pyrido[4′,3′:4,5]thieno[2,3-d]pyrimidin-8-yl)-6-methyl-1H-indazole-5-carbonitrile]	5.96			6.05	6.58	6.36		6.31	6.76				
